Assay [1] addresses T1, cloned human δ opioid receptor (Homo sapiens, UniProt P41143).
T1 construct: expressed in transfected cells; host or cells: CHO cells (membrane preparations)
Briefly: [3H]diprenorphine receptor binding, δ opioid receptor. The following applies: inhibition of [3H]diprenorphine binding, read-out: affinity (Ki value), delta opioid receptor. The procedure:
(§1) The potencies of the compounds listed in Table 2 were determined by testing the ability of a range of concentrations of each compound to inhibit the binding of the non-selective opioid antagonist, [^3H]diprenorphine, to the cloned human μ, κ, and δ opioid receptors, expressed in separate cell lines. IC50 values were obtained by nonlinear analysis of the data using GraphPad Prism version 3.00 for Windows (GraphPad Software, San Diego). Ki values were obtained by Cheng-Prusoff corrections of IC50 values.
(§2) The receptor binding method (DeHaven and DeHaven-Hudkins, 1998) was a modification of the method of Raynor et al. (1994). After dilution in buffer A and homogenization as before, membrane proteins (10-80 μg) in 250 μL were added to mixtures containing test compound and [^3H]diprenorphine (0.5 to 1.0 nM, 40,000 to 50,000 dpm) in 250 μL of buffer A in 96-well deep-well polystyrene titer plates (Beckman). […] The filters were rinsed 4 times with 1 mL of cold 50 mM Tris HCl, pH 7.8 and radioactivity remaining on the filters determined by scintillation spectroscopy. Nonspecific binding was determined by the minimum values of the titration curves and was confirmed by separate assay wells containing 10 μM naloxone. Ki values were determined by Cheng-Prusoff corrections of IC50 values derived from nonlinear regression fits of 12 point titration curves using GraphPad Prism® version 3.00 for Windows (GraphPad Software, San Diego, Calif.).
To determine the equilibrium dissociation constant for the inhibitors (Ki), radioligand bound (cpm) in the presence of various concentrations of test compounds was measured. The concentration to give half-maximal inhibition (EC50) of radioligand binding was determined from a best nonlinear regression fit to the following equation, […]
The potencies of the compounds were determined by testing the ability of a range of concentrations of each compound to inhibit the binding of the non-selective opioid antagonist, [^3H]diprenorphine, to the cloned human μ, κ, and δ opioid receptors, expressed in separate cell lines. […]

For assay [2], the target named is T1, cloned human δ opioid receptor. Briefly: Receptor-mediated [35S]GTPγS binding (agonist potency). The assay is classed as biochemical. The following applies: stimulation of [35S]GTPγS binding, membranes with cloned human δ opioid receptor; read-out: in vitro δ agonist activity (EC50). The procedure:
The potency and efficacy of compounds at each of the receptors are assessed by modifications of the methods of Selley et al., 1997 and Traynor and Nahorski, 1995 using receptor-mediated [^35S]GTPγS binding in the same membrane preparations used to measure receptor binding. Assays are carried out in 96-well FlashPlates® (Perkin Elmer Life Sciences, Inc, Boston, Mass.). Membranes prepared from CHO cells expressing the appropriate receptor (50-100 μg of protein) are added to assay mixtures containing agonist with or without antagonists, 100 pM [^35S]GTPγS (approx. 100,000 dpm), 3.0 μM GDP, 75 mM NaCl, 15 mM MgCl2, 1.0 mM ethylene glycol-bis(β-aminoethyl ether)-N,N,N′,N′-tetracetic acid, 1.1 mM dithiothreitol, 10 μg/mL leupeptin, 10 μg/mL pepstatin A, 200 μg/mL bacitracin, and 0.5 μg/mL aprotinin in 50 mM Tris-HCl buffer, pH 7.8. After incubation at room temperature for one hour, the plates are sealed, centrifuged at 800×g in a swinging bucket rotor for 5 min and bound radioactivity determined with a TopCount microplate scintillation counter (Packard Instrument Co., Meriden, Conn.).
EC50 values for agonists are determined from nonlinear regression fits of 8- or 12-point titration curves to the 4-parameter equation for a sigmoidal dose-response with a slope factor of 1.0 using GraphPad Prism® version 3.00 for Windows (GraphPad Software, San Diego, Calif.).
The potencies of the compounds were determined by testing the ability of a range of concentrations of each compound to inhibit the binding of the non-selective opioid antagonist, [^3H]diprenorphine, to the cloned human μ, κ, and δ opioid receptors, expressed in separate cell lines. […] These compounds display high selectivity δ/κ and δ/μ (at least 10-fold). The potencies of the agonists were assessed by their abilities to stimulate [^35S]GTPγS binding to membranes containing the cloned human δ opioid receptors.

Assay [3] concerns the target T2, cloned human μ opioid receptor (Homo sapiens, UniProt P35372).
T2 construct: expressed in transfected cells; host or cells: CHO cells (membrane preparations)
Description: [3H]diprenorphine receptor binding, μ opioid receptor. The settings on record: inhibition of [3H]diprenorphine binding, read-out: affinity (Ki value), mu opioid receptor. The procedure:
as §1
as §2, with “(1994).” for “(1994). After dilution in buffer A and homogenization as before, membrane proteins (10-80 μg) in 250 μL were added to mixtures containing test compound and [^3H]diprenorphine (0.5 to 1.0 nM, 40,000 to 50,000 dpm) in 250 μL of buffer A in 96-well deep-well polystyrene titer plates (Beckman).”
(§3) To determine the equilibrium dissociation constant for the inhibitors (Ki), radioligand bound (cpm) in the presence of various concentrations of test compounds was measured. […]

For assay [4], the target named is T3, cloned human κ opioid receptor (Homo sapiens, UniProt P41145).
T3 construct: expressed in transfected cells; host or cells: CHO cells (membrane preparations)
Briefly: [3H]diprenorphine receptor binding, κ opioid receptor. The settings on record: inhibition of [3H]diprenorphine binding, read-out: affinity (Ki value), kappa opioid receptor. The procedure: as §1
as §2, with “(1994).” for “(1994). After dilution in buffer A and homogenization as before, membrane proteins (10-80 μg) in 250 μL were added to mixtures containing test compound and [^3H]diprenorphine (0.5 to 1.0 nM, 40,000 to 50,000 dpm) in 250 μL of buffer A in 96-well deep-well polystyrene titer plates (Beckman).”
as §3

The values that follow come from patent publication US7598261B2, “Spirocyclic heterocyclic derivatives and methods of their use” (Adolor Corporation, priority 2005, dated 2009).

Bounds are passed on as bounds.

T1 sequence (P41143 whole entry): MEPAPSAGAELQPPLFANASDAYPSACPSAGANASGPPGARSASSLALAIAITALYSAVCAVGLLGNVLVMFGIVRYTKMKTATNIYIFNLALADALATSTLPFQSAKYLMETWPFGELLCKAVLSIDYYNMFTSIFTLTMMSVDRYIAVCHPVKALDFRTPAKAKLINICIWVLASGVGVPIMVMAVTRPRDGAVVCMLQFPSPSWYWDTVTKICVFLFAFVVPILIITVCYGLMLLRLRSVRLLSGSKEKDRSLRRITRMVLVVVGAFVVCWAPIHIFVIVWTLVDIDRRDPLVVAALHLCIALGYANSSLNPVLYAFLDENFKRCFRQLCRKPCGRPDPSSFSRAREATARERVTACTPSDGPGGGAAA
T2 sequence (P35372 whole entry): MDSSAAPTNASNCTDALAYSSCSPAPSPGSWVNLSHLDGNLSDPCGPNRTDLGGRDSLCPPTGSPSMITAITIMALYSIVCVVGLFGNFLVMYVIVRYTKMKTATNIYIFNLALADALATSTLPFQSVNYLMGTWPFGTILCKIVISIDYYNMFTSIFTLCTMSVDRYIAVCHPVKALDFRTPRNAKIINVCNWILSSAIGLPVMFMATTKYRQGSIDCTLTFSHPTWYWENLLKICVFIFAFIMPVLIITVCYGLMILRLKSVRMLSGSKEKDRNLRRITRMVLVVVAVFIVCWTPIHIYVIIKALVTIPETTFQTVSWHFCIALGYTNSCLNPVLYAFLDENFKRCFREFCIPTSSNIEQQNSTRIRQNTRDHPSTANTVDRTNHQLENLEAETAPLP
T3 sequence (P41145 whole entry): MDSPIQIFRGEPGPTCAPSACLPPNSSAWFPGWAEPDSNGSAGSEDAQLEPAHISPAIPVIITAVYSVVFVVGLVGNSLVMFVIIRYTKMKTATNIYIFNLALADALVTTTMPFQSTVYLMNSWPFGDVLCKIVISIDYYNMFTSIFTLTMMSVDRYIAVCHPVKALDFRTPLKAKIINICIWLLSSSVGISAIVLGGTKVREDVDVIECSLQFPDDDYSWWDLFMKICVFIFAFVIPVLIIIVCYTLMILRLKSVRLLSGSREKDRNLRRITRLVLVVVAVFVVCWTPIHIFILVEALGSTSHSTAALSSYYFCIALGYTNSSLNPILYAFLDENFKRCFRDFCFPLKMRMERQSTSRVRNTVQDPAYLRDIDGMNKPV

With `CCN(CC)C(=O)c1ccc(C2CC3(CCNCC3)Oc3ccc(F)cc32)c(O)c1` (single isomer, unassigned) [61A], the Ki in assay [1] stood at 0.00059 µM. Also, in assay [2], the EC50 (in general, the concentration needed to bring the measured effect to its halfway point) amounted to 0.0168 µM.
On to `CCN(CC)C(=O)c1ccc(C2CC3(CCNCC3)Oc3ccc(F)cc32)c(O)c1` (single isomer, unassigned) [61B], for which, in assay [1], the Ki came to 0.075 µM. The concentration for a half-maximal effect (EC50) in assay [2] was found to be 1.28 µM.
Turning to `CC(=O)c1ccc(C2=CC3(CCNCC3)Oc3ccccc32)cc1` [33M], the Ki was 0.0097 µM in assay [1], greater than 1 µM in assay [3] and greater than 1 µM in assay [4]. In addition, in assay [2], the EC50 turned out to be 0.287 µM.
